pIC50: −log10 of the molar value. Where two headings read alike, the source gives them in different places.
Legend:
[1] = test system: CYP-mediated enzyme activities; experiment: N-in-one CYP inhibition assay, summary for all other CYP-mediated activities; assay type: in vitro ADME; conditions: human liver microsomes; CYPs other than those named in the paragraph
CYP2C9 = CYP2C9 (Homo sapiens, UniProt P11712); conditions: read-out: IC50, Tolbutamide methylhydroxylation; human liver microsomes, probe 4 μM
Sequence of CYP2C9 (P11712 whole entry): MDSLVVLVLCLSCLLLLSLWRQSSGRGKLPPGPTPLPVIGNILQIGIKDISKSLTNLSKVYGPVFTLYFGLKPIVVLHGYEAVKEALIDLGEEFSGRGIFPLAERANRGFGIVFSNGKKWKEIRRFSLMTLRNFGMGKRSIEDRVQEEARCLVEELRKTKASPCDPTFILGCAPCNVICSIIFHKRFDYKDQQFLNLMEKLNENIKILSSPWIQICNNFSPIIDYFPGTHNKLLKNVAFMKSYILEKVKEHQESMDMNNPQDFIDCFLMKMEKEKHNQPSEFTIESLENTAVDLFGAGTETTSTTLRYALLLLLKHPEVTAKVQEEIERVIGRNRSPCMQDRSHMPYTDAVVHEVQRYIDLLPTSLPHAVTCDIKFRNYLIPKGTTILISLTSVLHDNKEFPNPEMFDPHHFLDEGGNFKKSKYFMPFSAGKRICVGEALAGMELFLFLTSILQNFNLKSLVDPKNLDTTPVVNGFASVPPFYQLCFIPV
Procedure: (§1) Human liver microsomes were prepared and pooled from ten human livers (HL20–24,28–32) as previously described. Human liver samples were obtained from the University Hospital of Oulu as surplus tissue from cadaver kidney transplant donors. The collection of surplus tissue was approved by the Ethics Committee of the Medical Faculty of the University of Oulu, Finland. All donors were Caucasians ranging in age from 21 to 62 years; four were female and six were male. Detailed information on each donor has been published previously. Protein concentrations were measured using the Bradford method.
(§2) In vitro inhibition of CYP isoforms was first assessed using the N-in-one approach (also called the cocktail approach). CYP-selective substrates and reactions are listed in Table 1; concentrations were roughly at or below the respective Michaelis-Menten coefficients. […] A Micromass LCT time-of-flight high-resolution mass spectrometer (Micromass Ltd., Manchester, UK) equipped with a Z-spray electrospray ionization source was used for the monitoring of CYP-selective reactions. Integrated mass chromatogram peak areas were normalized versus internal standards before comparing metabolites in different preparations. More details of the assay are available in previous publications.
(§3) Dixon, Lineweaver-Burk, Hanes, and Hofstee plots were used for the analysis of the type of inhibition.

CYP2C8 = biological target: T1, CYP2C8 (Homo sapiens, UniProt P10632); experiment: N-in-one CYP inhibition assay in human liver microsomes; type of inhibition; conditions: read-out: IC50, Amodiaquine desethylation; human liver microsomes, probe 2 μM
T1 sequence (P10632 1-490): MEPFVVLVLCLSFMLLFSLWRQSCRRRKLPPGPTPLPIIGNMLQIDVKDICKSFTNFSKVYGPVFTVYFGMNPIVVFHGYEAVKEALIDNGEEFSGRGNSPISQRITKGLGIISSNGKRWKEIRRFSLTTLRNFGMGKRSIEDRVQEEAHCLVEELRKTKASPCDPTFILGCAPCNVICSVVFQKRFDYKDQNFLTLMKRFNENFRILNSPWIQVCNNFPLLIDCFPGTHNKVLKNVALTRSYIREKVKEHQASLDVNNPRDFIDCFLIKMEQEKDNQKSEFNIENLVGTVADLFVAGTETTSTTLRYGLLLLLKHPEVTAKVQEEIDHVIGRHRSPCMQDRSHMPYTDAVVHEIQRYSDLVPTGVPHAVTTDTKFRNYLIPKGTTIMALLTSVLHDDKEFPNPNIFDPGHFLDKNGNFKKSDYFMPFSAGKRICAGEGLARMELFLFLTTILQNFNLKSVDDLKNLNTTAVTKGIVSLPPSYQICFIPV
Procedure: as §1, §2, §3

CYP2D6 = CYP2D6 (Homo sapiens, UniProt P10635); experiment: as above; conditions: read-out: IC50, Dextromethorphan O-demethylation; human liver microsomes, probe 0.2 μM
Sequence of CYP2D6 (P10635 whole entry): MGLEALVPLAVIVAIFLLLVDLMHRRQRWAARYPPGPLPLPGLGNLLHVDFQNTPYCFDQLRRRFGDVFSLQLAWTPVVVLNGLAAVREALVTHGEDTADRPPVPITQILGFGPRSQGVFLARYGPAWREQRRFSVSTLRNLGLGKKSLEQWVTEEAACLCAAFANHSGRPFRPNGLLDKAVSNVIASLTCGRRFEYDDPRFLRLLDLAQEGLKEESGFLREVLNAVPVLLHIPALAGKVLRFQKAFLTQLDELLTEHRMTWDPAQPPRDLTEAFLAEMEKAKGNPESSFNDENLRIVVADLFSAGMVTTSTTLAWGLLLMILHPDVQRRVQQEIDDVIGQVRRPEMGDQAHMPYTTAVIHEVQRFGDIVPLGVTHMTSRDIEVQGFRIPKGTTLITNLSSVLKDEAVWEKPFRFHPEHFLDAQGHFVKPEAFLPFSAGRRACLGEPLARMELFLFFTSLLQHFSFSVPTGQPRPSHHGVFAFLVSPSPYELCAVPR
Procedure: as §1, §2, §3

[2] = metabolites of ospemifene; cited from earlier work
CYP1A2 = biological target: T2, CYP1A2 (Homo sapiens, UniProt P05177); experiment: biochemical; conditions: read-out: IC50, Melatonin 6-hydroxylation; human liver microsomes, probe 4 μM
T2 sequence (P05177 1-516): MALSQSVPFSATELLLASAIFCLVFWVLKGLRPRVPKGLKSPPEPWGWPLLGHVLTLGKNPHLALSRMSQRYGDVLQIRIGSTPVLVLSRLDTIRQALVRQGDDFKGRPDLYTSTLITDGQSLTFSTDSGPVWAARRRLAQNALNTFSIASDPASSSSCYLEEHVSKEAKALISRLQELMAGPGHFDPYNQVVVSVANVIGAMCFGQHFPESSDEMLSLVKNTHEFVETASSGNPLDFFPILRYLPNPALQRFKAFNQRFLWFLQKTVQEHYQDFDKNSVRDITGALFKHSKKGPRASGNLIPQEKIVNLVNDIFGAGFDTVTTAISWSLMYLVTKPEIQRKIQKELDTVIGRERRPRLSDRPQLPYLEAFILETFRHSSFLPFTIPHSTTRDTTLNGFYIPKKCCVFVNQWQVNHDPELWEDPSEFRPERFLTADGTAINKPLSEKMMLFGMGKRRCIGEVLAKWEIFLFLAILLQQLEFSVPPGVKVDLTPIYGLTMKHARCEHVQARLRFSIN
Procedure: as §1, §2

CYP3A4 = CYP3A4 (Homo sapiens, UniProt P08684); experiment: biochemical; conditions: human liver microsomes
Sequence of CYP3A4 (P08684 whole entry): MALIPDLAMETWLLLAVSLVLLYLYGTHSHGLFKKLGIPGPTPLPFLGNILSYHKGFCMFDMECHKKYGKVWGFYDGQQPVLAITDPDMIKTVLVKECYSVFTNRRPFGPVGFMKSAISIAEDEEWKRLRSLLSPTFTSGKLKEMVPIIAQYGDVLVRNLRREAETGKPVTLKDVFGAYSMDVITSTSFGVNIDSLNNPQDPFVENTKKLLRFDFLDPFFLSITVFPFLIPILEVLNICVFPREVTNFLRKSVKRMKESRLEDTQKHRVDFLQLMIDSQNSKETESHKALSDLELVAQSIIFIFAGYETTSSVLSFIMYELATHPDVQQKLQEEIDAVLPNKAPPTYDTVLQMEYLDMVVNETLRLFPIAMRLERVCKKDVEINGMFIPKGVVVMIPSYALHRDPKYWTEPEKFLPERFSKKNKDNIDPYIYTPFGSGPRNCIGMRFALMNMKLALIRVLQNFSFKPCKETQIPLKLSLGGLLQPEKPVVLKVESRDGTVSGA
Procedure: as §1, §2

[3] = repeated oral 60-mg dosing of ospemifene, no reference given; read-out: clinical Cmax; cited from earlier work
CYP2B6 = biological target: T3, CYP2B6 (Homo sapiens, UniProt P20813); experiment: biochemical; conditions: read-out: IC50, Bupropion hydroxylation; human liver microsomes, probe 1 μM
T3 sequence (P20813 1-491): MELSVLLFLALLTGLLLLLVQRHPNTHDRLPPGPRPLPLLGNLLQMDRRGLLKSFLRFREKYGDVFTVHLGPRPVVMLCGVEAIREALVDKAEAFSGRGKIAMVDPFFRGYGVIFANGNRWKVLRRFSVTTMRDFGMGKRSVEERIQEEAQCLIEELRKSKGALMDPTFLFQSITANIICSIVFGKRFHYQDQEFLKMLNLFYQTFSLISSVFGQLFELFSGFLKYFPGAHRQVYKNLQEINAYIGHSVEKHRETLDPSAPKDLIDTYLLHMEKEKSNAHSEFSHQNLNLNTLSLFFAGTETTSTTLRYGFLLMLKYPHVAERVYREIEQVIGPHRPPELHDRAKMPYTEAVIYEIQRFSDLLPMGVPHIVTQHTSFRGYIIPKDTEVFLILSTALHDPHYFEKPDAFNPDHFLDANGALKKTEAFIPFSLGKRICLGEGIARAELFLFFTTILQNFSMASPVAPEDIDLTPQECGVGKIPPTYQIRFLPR
Procedure: as §1, §2, §3

CYP2C19 = CYP2C19 (Homo sapiens, UniProt P33261); experiment: biochemical; conditions: human liver microsomes, probe 2 μM
Sequence of CYP2C19 (P33261 whole entry): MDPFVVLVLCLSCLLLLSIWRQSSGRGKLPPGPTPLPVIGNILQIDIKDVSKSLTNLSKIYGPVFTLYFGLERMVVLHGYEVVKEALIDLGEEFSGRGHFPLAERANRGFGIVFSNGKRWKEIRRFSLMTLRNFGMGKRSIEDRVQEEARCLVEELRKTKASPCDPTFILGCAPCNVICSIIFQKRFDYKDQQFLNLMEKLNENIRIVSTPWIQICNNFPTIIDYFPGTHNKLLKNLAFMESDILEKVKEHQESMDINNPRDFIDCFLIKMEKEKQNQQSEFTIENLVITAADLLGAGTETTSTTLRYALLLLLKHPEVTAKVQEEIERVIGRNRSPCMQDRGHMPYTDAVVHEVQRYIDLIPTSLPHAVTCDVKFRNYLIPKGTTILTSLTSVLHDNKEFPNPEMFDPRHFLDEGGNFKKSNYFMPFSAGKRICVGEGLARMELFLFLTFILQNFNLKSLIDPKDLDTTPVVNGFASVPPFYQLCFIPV
Procedure: as §1, §2, §3

CYP2A6 = biological target: T4, CYP2A6 (Homo sapiens, UniProt P11509); experiment: N-in-one CYP inhibition assay in human liver microsomes; conditions: read-out: IC50, Coumarin 7-hydroxylation; human liver microsomes, probe 2 μM
T4 sequence (P11509 1-494): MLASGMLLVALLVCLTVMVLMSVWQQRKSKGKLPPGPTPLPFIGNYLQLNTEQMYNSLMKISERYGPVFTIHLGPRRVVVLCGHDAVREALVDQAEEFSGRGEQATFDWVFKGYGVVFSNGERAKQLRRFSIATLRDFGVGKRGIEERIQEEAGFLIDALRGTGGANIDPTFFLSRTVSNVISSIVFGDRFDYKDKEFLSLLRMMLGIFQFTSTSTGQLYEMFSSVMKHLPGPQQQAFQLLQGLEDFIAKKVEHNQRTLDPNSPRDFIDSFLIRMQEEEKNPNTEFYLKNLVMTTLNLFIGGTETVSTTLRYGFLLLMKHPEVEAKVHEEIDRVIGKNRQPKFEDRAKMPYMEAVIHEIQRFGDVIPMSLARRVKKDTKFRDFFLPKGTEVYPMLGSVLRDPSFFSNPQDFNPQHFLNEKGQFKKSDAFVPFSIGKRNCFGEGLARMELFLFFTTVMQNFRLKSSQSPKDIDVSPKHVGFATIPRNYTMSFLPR
Procedure: as §1, §2

CYP2E1 = CYP2E1 (Homo sapiens, UniProt P05181); experiment: as above; conditions: read-out: IC50, Chlorzoxazone 6-hydroxylation; human liver microsomes, probe 6 μM
Sequence of CYP2E1 (P05181 whole entry): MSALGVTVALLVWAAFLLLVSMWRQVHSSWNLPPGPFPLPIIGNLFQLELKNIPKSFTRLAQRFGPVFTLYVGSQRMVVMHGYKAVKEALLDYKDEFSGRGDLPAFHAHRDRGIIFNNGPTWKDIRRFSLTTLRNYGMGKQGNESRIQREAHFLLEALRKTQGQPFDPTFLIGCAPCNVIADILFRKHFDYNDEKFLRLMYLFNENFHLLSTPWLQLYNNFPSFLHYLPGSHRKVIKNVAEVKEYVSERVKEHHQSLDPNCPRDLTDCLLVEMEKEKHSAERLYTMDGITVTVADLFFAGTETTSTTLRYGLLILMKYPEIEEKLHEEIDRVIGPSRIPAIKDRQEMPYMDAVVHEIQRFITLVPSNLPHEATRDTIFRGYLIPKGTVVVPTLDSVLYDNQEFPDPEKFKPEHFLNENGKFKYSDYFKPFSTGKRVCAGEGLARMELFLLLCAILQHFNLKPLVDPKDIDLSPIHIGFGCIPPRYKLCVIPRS
Procedure: as §1, §2

[4] = Study 2: effect of ospemifene on bupropion pharmacokinetics; conditions: for CL/F, mean (CV%) / t1/2, mean (CV%) / AUCt, mean (CV%) / Cmax, mean (CV%) / tmax, median (range) / AUC∞, mean (CV%): 150 mg bupropion; for AUCt, mean (CV%): 0-96 h; for AUC∞, mean (CV%): N = 16
Text: (§4) Studies 1 and 2 were open-label, two-period, single-center, Phase 1, balanced, crossover studies in healthy postmenopausal women. […] Study 3 was a Phase 1, open-label, single-center, balanced, two-period, crossover study in healthy postmenopausal women who were not homozygous for the CYP2C19*2 genotype (CYP2C19*2 indicates the CYP2C19 variant that is associated with reduced activity). In each study, equal numbers of subjects were assigned to the two different treatment sequences.
(§5) The study periods were separated by ≥14 days.
(§6) With the exception of tmax, which was analyzed using the nonparametric Wilcoxon’s test, pharmacokinetic parameters were analyzed after log-transformation using analysis of variance (ANOVA), with sequence, period, and treatment as fixed effects.

[5] = Overall safety in the three clinical studies; assay type: in vivo, human; conditions: healthy postmenopausal women, with and without ospemifene
Text: All experiments with human subjects were based on voluntary informed consent and the clinical study protocols had appropriate ethical and regulatory approval. Subjects were asked to immediately report any significant adverse events (AEs) that occurred during the study; minor AEs were reported at clinic visits. AEs were coded and classified according to the Medical Dictionary for Regulatory Activities.

clinical = conditions: female, human, in vivo
Text: as §4, §5, §6

[6] = female, human, in vivo, 150 mg
Text: as §4, §5, §6

[7] = Study 3: effect of ospemifene on omeprazole pharmacokinetics (metabolic ratios)
Text: as §4
The study periods were separated by ≥14 days. In both study periods, blood samples for determination of plasma omeprazole, 5-hydroxyomeprazole, and omeprazole sulfone concentrations were collected before and at 1, 2, 3, 4, 6, and 8 h after omeprazole administration.
In Study 3, concentrations of omeprazole, 5-hydroxyomeprazole, and omeprazole sulfone were determined using a validated LC-MS/MS method. Pharmacokinetic parameters were analyzed after log-transformation using ANOVA, with sequence, period, and treatment as fixed effects. Primary pharmacokinetic parameters included the metabolic ratios of omeprazole/5-hydroxyomeprazole and omeprazole/omeprazole sulfone, based on plasma concentrations at 3 h, which reflected CYP2C19 and CYP3A4 activities, respectively.

[8] = 10 mg racemic warfarin; for AUC∞, mean (CV%): N = 16
Text: as §4
The study periods were separated by ≥3 weeks.
as §6

[9] = cited from earlier work

## OCCOc1ccc(/C(=C(/CCCl)c2ccccc2)c2ccc(O)cc2)cc1 [4-Hydroxy-ospemifene, 4-hydroxyospemifene]
[1]
  pIC50: < 4.60
CYP2C9
  pIC50: 5.96
CYP2C8
  pIC50: 4.56
CYP2D6
  pIC50: 4.59
[2]
  share of the total metabolites: roughly 70%
CYP1A2
  pIC50: < 4.00
CYP3A4; read-out: IC50, Midazolam 1′-hydroxylation, probe 0.4 μM
  pIC50: < 4.00
CYP3A4; read-out: IC50, Omeprazole 3-hydroxylation, probe 2 μM
  pIC50: 4.30
CYP3A4; read-out: IC50, Omeprazole sulfoxidation, probe 2 μM
  pIC50: 4.44
CYP3A4; read-out: IC50, Testosterone 6β-hydroxylation, probe 1 μM
  pIC50: < 4.00
[3]
  Cmax: ~300 nM
CYP2B6
  pIC50: 4.58
CYP2C19; read-out: IC50, Omeprazole 5-hydroxylation
  pIC50: 4.82
CYP2C19; read-out: IC50, Omeprazole demethylation
  pIC50: 4.71
CYP2A6
  pIC50: < 4.00
CYP2E1
  pIC50: < 4.00

## CC(NC(C)(C)C)C(=O)c1cccc(Cl)c1 (centres unmarked) [Bupropion, bupropion]
[4]; OSP (+)
  CL/F, mean (CV%): 230 (38.1) mL/h
  t1/2, mean (CV%): 29.5 (26.7) h
[4]; OSP (−)
  CL/F, mean (CV%): 185 (38.1) mL/h
[5]
  Tolerability: well tolerated
clinical
  Tmax: 3 h
clinical; 150 mg
  Cmax: 74.9 ng/mL
  Tmax: 3.5 h
  half-life: 30.8 h
[6]
  AUCt, mean (CV%): 0.85 (33.7) μg h/mL
  AUC∞, mean (CV%): 0.90 (32.3) μg h/mL

## C[C@H]1NC(C)(C)CO[C@]1(O)c1cccc(Cl)c1 [Hydroxybupropion, hydroxybupropion]
[4]; OSP (+)
  AUCt, mean (CV%): 14.5 (31.7) μg h/mL
  Cmax, mean (CV%): 462 (29.0) ng/mL
  t1/2, mean (CV%): 21.2 (18.0) h
  tmax, median (range): 6.1 (5–8) h
[4]; OSP (−)
  AUCt, mean (CV%): 14.3 (28.1) μg h/mL
  Cmax, mean (CV%): 398 (30.6) ng/mL
  t1/2, mean (CV%): 26.7 (18.8) h
  tmax, median (range): 6.0 (5–24) h
  AUC∞, mean (CV%): 15.5 (29.4) μg h/mL
[4]; OSP (+) 60 mg once daily
  AUC∞, mean (CV%): 15.2 (32.4) μg h/mL
[4]; with and without ospemifene pretreatment
  Ratio of geometric least square means of AUC∞ (90% CI): 0.977 (0.921–1.036)

## COc1ccc2[nH]c([S+]([O-])Cc3ncc(C)c(OC)c3C)nc2c1 (centres unmarked) [Omeprazole, omeprazole]
[7]; 3 h conc.
  Ratio ospemifene (+)/ospemifene (−) of metabolic ratio Omeprazole/5-hydroxyomeprazole (90% CI): 0.97 (0.77–1.22)
  Ratio ospemifene (+)/ospemifene (−) of metabolic ratio Omeprazole/Omeprazole sulfone (90% CI): 0.97 (0.67–1.41)
[7]; AUCt 0 to 8 h
  Ratio ospemifene (+)/ospemifene (−) of metabolic ratio Omeprazole/5-hydroxyomeprazole (90% CI): 0.97 (0.88–1.08)
  Ratio ospemifene (+)/ospemifene (−) of metabolic ratio Omeprazole/Omeprazole sulfone (90% CI): 1.00 (0.88–1.15)
[5]
  Tolerability: well tolerated

## CC(=O)C[C@H](c1ccccc1)c1c(O)c2ccccc2oc1=O [R-Warfarin]
[8]; OSP (+)
  Cmax, mean (CV%): 538 (15.4) ng/mL
  tmax, median (range): 4 (2–8) h
[8]; OSP (+) 60 mg once daily
  AUC∞, mean (CV%): 32.8 (23.1) μg h/mL
[8]; OSP (−)
  Cmax, mean (CV%): 518 (15.2) ng/mL
  tmax, median (range): 4 (2–6) h
  AUC∞, mean (CV%): 31.3 (21.7) μg h/mL

## O=C(c1ccc(OCCN2CCCCC2)cc1)c1c(-c2ccc(O)cc2)sc2cc(O)ccc12 [Raloxifene]
[9]
  Decrease of the prothrombin time of patients on warfarin: 10%

## CC(=O)C[C@@H](c1ccccc1)c1c(O)c2ccccc2oc1=O [S-Warfarin, S-warfarin]
[8]; OSP (+)
  Cmax, mean (CV%): 513 (13.3) ng/mL
  tmax, median (range): 4 (2–8) h
[8]; OSP (+) 60 mg once daily
  AUC∞, mean (CV%): 19.2 (30.2) μg h/mL
[8]; OSP (−)
  Cmax, mean (CV%): 497 (14.5) ng/mL
  tmax, median (range): 4 (2–6) h
  AUC∞, mean (CV%): 18.5 (29.9) μg h/mL

## CC(=O)CC(c1ccccc1)c1c(O)c2ccccc2oc1=O (centres unmarked) [warfarin]
[5]
  Tolerability: well tolerated

From publication PMC3742231 (International Journal of Molecular Sciences, 2013)
